Source: patent publication US7553972B2, “Benzamide inhibitors of the P2X7 receptor” (Pfizer, Inc., priority 2003, dated 2009)

biological target: T1, P2X7 receptor (Homo sapiens, UniProt Q99572); assay: Inhibition of ATP-stimulated IL-1β release from LPS-activated blood monocytes (P2X7 antagonist activity, ELISA readout); type: cell-based; conditions: monocytes from normal volunteers, 10 ng/ml LPS 2 h, compound 30 min, 2 mM ATP 3 h, IL-1β by ELISA, triplicate wells; read-out: IC50 (inhibit 50% of the stimulation of the release of IL-1β from monocytes by ATP)
T1 construct: endogenous in cells
T1 sequence (Q99572 1-595): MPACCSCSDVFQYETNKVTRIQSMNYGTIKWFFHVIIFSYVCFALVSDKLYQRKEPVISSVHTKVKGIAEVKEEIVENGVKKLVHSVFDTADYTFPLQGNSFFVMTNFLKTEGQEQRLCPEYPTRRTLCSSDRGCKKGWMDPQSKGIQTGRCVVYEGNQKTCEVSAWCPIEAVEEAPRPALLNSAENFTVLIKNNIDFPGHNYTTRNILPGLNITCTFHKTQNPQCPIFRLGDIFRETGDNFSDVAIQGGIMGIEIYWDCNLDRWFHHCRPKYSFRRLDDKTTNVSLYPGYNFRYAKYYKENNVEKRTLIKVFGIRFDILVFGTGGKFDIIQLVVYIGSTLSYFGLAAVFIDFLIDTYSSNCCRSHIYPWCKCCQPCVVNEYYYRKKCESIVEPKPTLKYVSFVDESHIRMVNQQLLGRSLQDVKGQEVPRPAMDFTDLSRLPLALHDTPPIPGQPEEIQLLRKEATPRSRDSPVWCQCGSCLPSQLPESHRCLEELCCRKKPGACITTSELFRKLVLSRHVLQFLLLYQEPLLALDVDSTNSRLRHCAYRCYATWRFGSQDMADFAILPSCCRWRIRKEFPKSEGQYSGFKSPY
Procedure: In like manner, the compounds of the invention can be tested for antagonist activity at the P2X7 receptor using the cytokine IL-1β as the readout. Blood collected from normal volunteers in the presence of heparin is fractionated using lymphocyte separation medium obtained from Organon Technica (Westchester, Pa.). […] The resulting cell pellet was suspended in 10 ml of Maintenance Medium and a cell count was performed. In an average experiment, 2×10^5 mononuclear cells are seeded into each well of 96-well plates in a total volume of 0.1 ml. Monocytes are allowed to adhere for 2 hours, after which the supernatants are discarded and the attached cells are rinsed twice and then incubated in Maintenance Medium overnight at 37° C. in a 5% CO2 environment.
(§1) The cultured monocytes can be activated with 10 ng/ml LPS (E. coli serotype 055:B5; Sigma Chemicals, St. Louis, Mo.). […] ATP then is introduced (from a 100 mM stock solution, pH 7) to achieve a final concentration of 2 mM and the plate is incubated at 37° C. for an additional 3 hours. Media were harvested and clarified by centrifugation, and their IL-1[…] content was determined by ELISA (R&D Systems; Minneapolis, Minn.).
Blood was collected from normal volunteers in the presence of heparin, and was fractionated using lymphocyte separation medium obtained from Organon Technica (Westchester, Pa.). […] The resulting cell pellet was suspended in 10 ml of Maintenance Medium and a cell count was performed. Approximately, 2×10^5 mononuclear cells were seeded into each well of 96-well plates in a total volume of 0.1 ml. Monocytes were allowed to adhere for 2 hours, after which the supernatants were discarded and the attached cells were rinsed twice and then incubated in Maintenance Medium overnight at 37° C. in a 5% CO2 environment.
as §1, with “monocytes were” for “monocytes can be”, “then was” for “then is”, “plate was” for “plate is”, “their IL-1β” for “their IL-1[…]”

Point of comparison: Cc1cc(-c2ccc(Cl)c(C(=O)NCC3(O)CCCCCC3)c2)nn1CC(=O)N1CCCC1 [Example 46, 2-Chloro-N-(1-hydroxy-cycloheptylmethyl)-5-[5-methyl-1-(2-oxo-2-pyrrolidin-1-yl-ethyl)-1H-pyrazol-3-yl]-benzamide], IC50 22 nM. Against it:
- Cc1cc(-c2ccc(Cl)c(C(=O)NCC3(O)CCCCCC3)c2)nn1CC(=O)N1C[C@H](O)[C@@H](O)C1 [Example 53, 2-Chloro-5-{1-[2-(3,4-dihydroxy-pyrrolidin-1-yl)-2-oxo-ethyl]-5-methyl-1H-pyrazol-3-yl}-N-(1-hydroxy-cycloheptylmethyl)-benzamide] — within 1.5-fold, 15.5 nM
- Cc1cc(-c2ccc(Cl)c(C(=O)NCC3(C#N)CCCCCC3)c2)[nH]n1 [Example 21, 2-Chloro-N-(1-cyano-cycloheptylmethyl)-5-(5-methyl-2H-pyrazol-3-yl)-benzamide] — 2.1-fold higher, 46 nM
- Cc1ccc(-c2ccc(Cl)c(C(=O)NCC3(O)CCCC(C)(C)C3)c2)nc1 (centres unmarked) [Example 2, 2-Chloro-N-(1-hydroxy-3,3-dimethyl-cyclohexylmethyl)-5-(5-methyl-pyridin-2-yl)-benzamide] — 2-fold lower, 11 nM
- Cc1cc(-c2ccc(Cl)c(C(=O)NCC3(O)CCCCCC3)c2)nn1CC(C)(C)O [Example 42, 2-Chloro-N-(1-hydroxy-cycloheptylmethyl)-5-[1-(2-hydroxy-2-methyl-propyl)-5-methyl-1H-pyrazol-3-yl]-benzamide] — 2.8-fold lower, 8 nM
- CCC(CO)NC(=O)Cn1nc(-c2ccc(Cl)c(C(=O)NCC3(O)CCCCCC3)c2)cc1C (centres unmarked) [Example 48, 2-Chloro-N-(1-hydroxy-cycloheptylmethyl)-5-{1-[(1-hydroxymethyl-propylcarbamoyl)-methyl]-5-methyl-1H-pyrazol-3-yl}-benzamide] — 2.1-fold lower, 10.5 nM
- COC[C@H](O)Cn1nc(-c2ccc(Cl)c(C(=O)NCC3(O)CCCCCC3)c2)cc1C (stereo in doubt) [Example 39, 2-Chloro-N-(1-hydroxy-cycloheptylmethyl)-5-[1-(2-hydroxy-3-methoxy-propyl)-5-methyl-1H-pyrazol-3-yl]-benzamide] — 2.8-fold lower, 8 nM
- O=C(NCC1(O)CCCCCC1)c1cc(-c2ccn(CCO)n2)ccc1Cl [Example 27, 2-Chloro-N-(1-hydroxy-cycloheptylmethyl)-5-[1-(2-hydroxy-ethyl)-1H-pyrazol-3-yl]-benzamide] — within 1.5-fold, 31 nM
- Cc1cc(-c2ccc(Cl)c(C(=O)NCC3(O)CCCCCC3)c2)nn1CC(N)=O [Example 37, 5-(1-Carbamoylmethyl-5-methyl-1H-pyrazol-3-yl)-2-chloro-N-(1-hydroxy-cycloheptylmethyl)-benzamide] — within 1.5-fold, 18 nM
- Cc1cc(-c2ccc(Cl)c(C(=O)NCC3(O)CCCCCC3)c2)nn1CCN [Example 33, 5-[1-(2-Amino-ethyl)-5-methyl-1H-pyrazol-3-yl]-2-chloro-N-(1-hydroxy-cycloheptylmethyl)-benzamide] — 2-fold lower, 11 nM
- Cc1ccc(-c2ccc(Cl)c(C(=O)NCCc3ccccc3Cl)c2)nc1 [Example 7, 2-Chloro-N-[2-(2-chloro-phenyl)-ethyl]-5-(5-methyl-pyridin-2-yl)-benzamide] — 75-fold higher, 1660 nM
- O=C(NCCc1ccccc1Cl)c1cc(-c2cn[nH]c2)ccc1Cl [Example 10, 2-Chloro-N-[2-(2-chloro-phenyl)-ethyl]-5-(1H-pyrazol-4-yl)-benzamide] — 36-fold higher, 800 nM
- COc1ccc(-c2ccc(Cl)c(C(=O)NCC3(O)CCCCCC3)c2)nn1 [Example 4, 2-Chloro-N-(1-hydroxy-cycloheptylmethyl)-5-(6-methoxy-pyridazin-3-yl)-benzamide] — 13-fold higher, 280 nM
- O=C(NCC1(O)CCCCCC1)c1cc(-c2ccc(=O)n(CCO)n2)ccc1Cl [Example 38, 2-Chloro-N-(1-hydroxy-cycloheptylmethyl)-5-[1-(2-hydroxy-ethyl)-6-oxo-1,6-dihydro-pyridazin-3-yl]-benzamide] — 11-fold higher, 245 nM
- Cc1cc(-c2ccc(Cl)c(C(=O)NCC3(O)CCCCCC3)c2)nn1CC(=O)Nc1ncccn1 [Example 52, 2-Chloro-N-(1-hydroxy-cycloheptylmethyl)-5-[5-methyl-1-(pyrimidin-2-ylcarbamoylmethyl)-1H-pyrazol-3-yl]-benzamide] — 2.8-fold lower, 8 nM
- Cc1cc(-c2ccc(Cl)c(C(=O)NCC3(O)CCCCCC3)c2)n(CCO)n1 [Example 31, 2-Chloro-N-(1-hydroxy-cycloheptylmethyl)-5-[2-(2-hydroxy-ethyl)-5-methyl-2H-pyrazol-3-yl]-benzamide] — 3.2-fold higher, 70 nM
- COc1ccc(-c2ccc(Cl)c(C(=O)NCCc3ccccc3Cl)c2)nn1 [Example 8, 2-Chloro-N-[2-(2-chloro-phenyl)-ethyl]-5-(6-methoxy-pyridazin-3-yl)-benzamide] — 24-fold higher, 525 nM
- O=C(NCC1(O)CCCCCC1)c1cc(-c2cn(CC(O)CF)cn2)ccc1Cl (centres unmarked) [Example 57, 2-Chloro-5-[1-(3-fluoro-2-hydroxy-propyl)-1H-imidazol-4-yl]-N-(1-hydroxy-cycloheptylmethyl)-benzamide] — higher, > 1000 nM
- Cc1cc(-c2ccc(Cl)c(C(=O)NCC3(O)CCCCCC3)c2)nn1C[C@@H](O)CN [Example 54, 5-[1-(3-Amino-2-hydroxy-propyl)-5-methyl-1H-pyrazol-3-yl]-2-chloro-N-(1-hydroxy-cycloheptylmethyl)-benzamide] — 4.4-fold lower, 5 nM
- O=C(NCC1(O)CCCCCC1)c1cc(-c2cc(CCO)on2)ccc1Cl [Example 58, 2-Chloro-N-(1-hydroxy-cycloheptylmethyl)-5-[5-(2-hydroxy-ethyl)-isoxazol-3-yl]-benzamide] — 20-fold higher, 430 nM
- Cc1cc(-c2ccc(Cl)c(C(=O)NCC3(O)CCCCCC3)c2)nn1CC(=O)NC(CO)CO [Example 50, 2-Chloro-N-(1-hydroxy-cycloheptylmethyl)-5-{1-[(2-hydroxy-1-hydroxymethyl-ethylcarbamoyl)-methyl]-5-methyl-1H-pyrazol-3-yl}-benzamide] — 4.4-fold lower, 5 nM
- N#CCn1ccc(-c2ccc(Cl)c(C(=O)NCC3(O)CCCCCC3)c2)n1 [Example 34, 2-Chloro-5-(1-cyanomethyl-1H-pyrazol-3-yl)-N-(1-hydroxy-cycloheptylmethyl)-benzamide] — 8.8-fold higher, 193 nM
- Cc1cc(-c2ccc(Cl)c(C(=O)NCC3(O)CCCC(C)(C)C3)c2)on1 (centres unmarked) [Example 14, 2-Chloro-N-(1-hydroxy-3,3-dimethyl-cyclohexylmethyl)-5-(3-methyl-isoxazol-5-yl)-benzamide] — 3.7-fold higher, 81 nM
- CCc1cc(-c2ccc(Cl)c(C(=O)NCC3(O)CCCCCC3)c2)[nH]n1 [Example 15, 2-Chloro-5-(5-ethyl-2H-pyrazol-3-yl)-N-(1-hydroxy-cycloheptylmethyl)-benzamide] — within 1.5-fold, 23 nM
- Cc1cc(-c2ccc(Cl)c(C(=O)NCC3(O)CCCC(C)(C)C3)c2)[nH]n1 (centres unmarked) [Example 13, 2-Chloro-N-(1-hydroxy-3,3-dimethyl-cyclohexylmethyl)-5-(5-methyl-2H-pyrazol-3-yl)-benzamide] — 2.8-fold lower, 8 nM
- O=C(NCC1(O)CCCCCC1)c1cc(-c2cn[nH]n2)ccc1Cl [Example 56, 2-Chloro-N-(1-hydroxy-cycloheptylmethyl)-5-(2H-[1,2,3]triazol-4-yl)-benzamide] — 22-fold higher, 480 nM
- Cc1cc(-c2ccc(Cl)c(C(=O)NCC3(O)CCCCCC3)c2)nn1CCO [Example 25, 2-Chloro-N-(1-hydroxy-cycloheptylmethyl)-5-[1-(2-hydroxy-ethyl)-5-methyl-1H-pyrazol-3-yl]-benzamide] — 5.5-fold lower, 4 nM
- NC(=O)Cn1ccc(-c2ccc(Cl)c(C(=O)NCC3(O)CCCCCC3)c2)n1 [Example 35, 5-(1-Carbamoylmethyl-1H-pyrazol-3-yl)-2-chloro-N-(1-hydroxy-cycloheptylmethyl)-benzamide] — 5.5-fold higher, 121 nM
- Cc1ccc(C2(CNC(=O)c3cc(-c4ccc(C)nc4)ccc3Cl)CCCCC2)cc1 [Example 1, 2-Chloro-5-(6-methyl-pyridin-3-yl)-N-(1-p-tolyl-cyclohexylmethyl)-benzamide] — within 1.5-fold, 29 nM
